Measured values reported in publication PMC3681751, “Identification of a Novel Antimicrobial Peptide from Human Hepatitis B Virus Core Protein Arginine-Rich Domain (ARD)” (PLoS Pathogens, 2013).
Read-outs that look alike come from different tables or passages of the source. Residues, ends and D or L forms follow the SMILES beside them.

Experiments:
E. coli (ATCC 25922) = assay type: cell-based, Escherichia coli
Description: (§1) The antimicrobial activities of HBc ARD peptides were tested using a number of bacterial strains from ATCC, including Pseudomonas aeruginosa Migula strain (ATCC 27853, ampicillin-resistant), Pseudomonas aeruginosa Migula strain (ATCC 9027, ampicillin-resistant), Klebsiella pneumoniae strain (ATCC 17593), Escherichia coli strain (ATCC 25922), Staphylococcus aureus subsp. strain (ATCC 25923, methicillin-resistant), Staphylococcus aureus subsp. strain (ATCC 29213, methicillin-resistant), Staphylococcus aureus subsp. strain (ATCC 19636, methicillinresistant), and Candida albicans strain (ATCC 10231).
(§2) All peptides were purchased from Yao-Hong Biotechnology Inc. (Taipei, Taiwan). Vendors provided data of peptide characterizations, including HPLC and Mass (data not shown). Antimicrobial activity was determined as described with some modifications as detailed below. Bacteria were grown overnight in Mueller–Hinton broth (Difco) at 37°C, and during the mid-logarithmic phase, bacteria were diluted to 10^6 CFU (colony formation unit)/ml in phosphate buffer (10 mM sodium phosphate and 50 mM sodium chloride, pH 7.2). Peptides were serially diluted in the same buffer. Fifty microliter (µl) of bacteria was mixed with fifty µl of peptides at varying concentrations followed by incubation at 37°C for 3 hours without shaking. At the end of incubation, bacteria were placed on Mueller-Hinton broth agar plates, and allowed growth at 37°C overnight for measurement of minimal bactericidal concentration (MBC). […] All peptides were tested in triplicate.

[1] = tested on: P. aeruginosa (ATCC 9027); assay type: cell-based, Pseudomonas aeruginosa
Description: as §1, §2

[2] = tested on: P. aeruginosa (ATCC 27853); assay type: cell-based, Pseudomonas aeruginosa
Description: as §1, §2

[3] = tested on: tested bacteria and fungi; assay type: cell-based; settings: summary over the tested bacteria of Table 1
Description: as §1, §2

S. aureus (ATCC 29213) = assay type: cell-based, Staphylococcus aureus
Description: as §1, §2

S. aureus (ATCC 19636) = assay type: cell-based, Staphylococcus aureus
Description: as §1, §2

S. aureus (ATCC 25923) = assay type: cell-based, Staphylococcus aureus
Description: as §1, §2

[4] = tested on: K. pneumonia (ATCC 13884); assay type: cell-based, Klebsiella pneumoniae
[5] = 3 h at 37°C in 10 mM sodium phosphate, 50 mM NaCl, pH 7.2, 10^6 CFU/ml, triplicate, ND = not detectable
[6] = 3 h at 37°C in phosphate buffer pH 7.2, triplicate
[7] = ampicillin-resistant strain, 3 h at 37°C in 10 mM sodium phosphate, 50 mM NaCl, pH 7.2, 10^6 CFU/ml, triplicate, ND = not detectable
[8] = ampicillin-resistant strain, 3 h at 37°C in phosphate buffer pH 7.2, triplicate
[9] = methicillin-resistant strain, 3 h at 37°C in 10 mM sodium phosphate, 50 mM NaCl, pH 7.2, 10^6 CFU/ml, triplicate, ND = not detectable
[10] = methicillin-resistant strain, 3 h at 37°C in phosphate buffer pH 7.2, triplicate

Molecule	Antimicrobial activity, MBC (E. coli (ATCC 25922); [6])	Antimicrobial activity, MBC [1, 8]	Antimicrobial activity, MBC [2, 8]	MBC for bacteria [3]	Antimicrobial activity, MBC (S. aureus (ATCC 29213); [10])	Antimicrobial activity, MBC (S. aureus (ATCC 19636); [10])	Antimicrobial activity, MBC (S. aureus (ATCC 25923); [10])	Antimicrobial activity, MBC [4, 6]	also measured
HBc155p: HBc147-183 phosphorylated on S155 (TVVRRRGRSPRRRTPSPRRRRSQSPRRRRSQSRESQC; phosphorylated S155; UniProt P03147 147-183, looked up, fragment)	37.4 µg/mL	37.4 µg/mL	37.4 µg/mL	8 µM	37.4 µg/mL	37.4 µg/mL	37.4 µg/mL	4.67 µg/mL	Antimicrobial activity, MBC (E. coli (ATCC 25922); [5]): 8 µM; Antimicrobial activity, MBC [1, 7]: 8 µM; Antimicrobial activity, MBC [2, 7]: 8 µM; Antimicrobial activity, MBC (S. aureus (ATCC 29213); [9]): 8 µM; Antimicrobial activity, MBC (S. aureus (ATCC 19636); [9]): 8 µM; Antimicrobial activity, MBC (S. aureus (ATCC 25923); [9]): 8 µM; Antimicrobial activity, MBC [4, 5]: 1 µM
CC(C)[C@H](NC(=O)[C@@H](NC(=O)[C@@H](N)[C@@H](C)O)C(C)C)C(=O)N[C@@H](CCCNC(=N)N)C(=O)N[C@@H](CCCNC(=N)N)C(=O)N[C@@H](CCCNC(=N)N)C(=O)NCC(=O)N[C@@H](CCCNC(=N)N)C(=O)N[C@@H](CO)C(=O)N1CCC[C@H]1C(=O)N[C@@H](CCCNC(=N)N)C(=O)N[C@@H](CCCNC(=N)N)C(=O)N[C@@H](CCCNC(=N)N)C(=O)N[C@H](C(=O)N1CCC[C@H]1C(=O)N[C@@H](CO)C(=O)N1CCC[C@H]1C(=O)N[C@@H](CCCNC(=N)N)C(=O)N[C@@H](C)C(=O)N[C@@H](C)C(=O)N[C@@H](CCCNC(=N)N)C(=O)N[C@@H](CO)C(=O)N[C@@H](CCC(N)=O)C(=O)N[C@@H](CO)C(=O)N1CCC[C@H]1C(=O)N[C@@H](CCCNC(=N)N)C(=O)N[C@@H](C)C(=O)N[C@@H](C)C(=O)N[C@@H](CCCNC(=N)N)C(=O)N[C@@H](CO)C(=O)N[C@@H](CCC(N)=O)C(=O)N[C@@H](CO)C(=O)N[C@@H](CCCNC(=N)N)C(=O)N[C@@H](CCC(=O)O)C(=O)N[C@@H](CO)C(=O)N[C@@H](CCC(N)=O)C(=O)N[C@@H](CS)C(=O)O)[C@@H](C)O [HBc147-183(34AA)] (H-TVVRRRGRSPRRRTPSPRAARSQSPRAARSQSRESQC-OH; N-terminus and C-terminus assumed)	> 135.94 µg/mL	135.94 µg/mL	135.94 µg/mL	significantly increased	> 135.94 µg/mL	> 135.94 µg/mL	> 135.94 µg/mL	135.94 µg/mL	Antimicrobial activity, MBC (E. coli (ATCC 25922); ATCC 25922, 3 h, pH 7.2): > 32 µM; Antimicrobial activity, MBC ([1]; ATCC 9027, 3 h, pH 7.2): 32 µM; Antimicrobial activity, MBC ([2]; ATCC 27853, 3 h, pH 7.2): 32 µM; Antimicrobial activity, MBC (S. aureus (ATCC 29213); ATCC 29213, 3 h, pH 7.2): > 32 µM; Antimicrobial activity, MBC (S. aureus (ATCC 19636); ATCC 19636, 3 h, pH 7.2): > 32 µM; Antimicrobial activity, MBC (S. aureus (ATCC 25923); ATCC 25923, 3 h, pH 7.2): > 32 µM; Antimicrobial activity, MBC ([4]; ATCC 13884, 3 h, pH 7.2): 32 µM
